Patent publication US9775856B2, “C-glycosylpolyphenol antidiabetic agents, effect on glucose tolerance and interaction with beta-amyloid. therapeutic applications of the synthesized agent(s) and of Genista tenera ethyl acetate extracts containing some of those agents” (FACULDADE DE CIENCIAS DA UNIVERSIDADE DE LISBOA, priority 2012, dated 2017)
Converted amounts (≈) assume the structure as drawn.

Legend:
[1] = tested on: mouse HII4E hepatoma cells; experiment: In vitro acute toxicity, MTT cell viability assay; assay type: cell-based; settings: 24 h exposure
Procedure: Acute cytotoxicity measurements were performed by the MTT method. The 3-(4,5-dimethylthiazol-2-yl)-2,5-diphenyltetrazolium bromide (MTT) assay was used to quantify metabolically viable cells in all samples. Adherent cells (mouse HII4E hepatoma cells) were seeded onto 96-well plates, allowed to attach for 24 h and exposed to the test compound for the following 24 h. Positive control (hydrogen peroxide), negative control (DMSO) and chloramphenicol were also included. At 48 h of culture, MTT was added to the cells at a final concentration of 0.5 mg/mL, followed by an incubation period of 3 h to allow the formazan crystals to form. After incubation, medium was removed, cells were washed twice to remove traces of medium and un-metabolized MTT, and DMSO (100 μL) was added to each well. Solubilisation of formazan crystals was performed by agitation in a 96-well plate shaker for 20 min at room temperature. Absorbance of each well was quantified at 550 nm, using 620 nm as reference wavelength on a scanning multiwell spectrophotometer (automated microplate reader).

[2] = tested on: STZ induced diabetic Wistar rats; settings: previous research work; cited from earlier work
[3] = 1H-NMR 2D DOSY diffusion coefficient; assay type: physicochemical; settings: DOSY spectrum acquired on the G. tenera extract at 25° C.
Procedure: NMR experiments were recorded on a Varian 400-MHz Mercury instrument. The basic VARIAN sequences were employed for 2D-TOCSY, 2D-NOESY, ^13C-HSQC, DOSY and STD experiments. […] A ^1H spectrum was acquired with a recycle delay of 60 s to achieve the complete relaxation of all the resonances at each scan.

[4] = Solubility in PBS; assay type: physicochemical; settings: pure compound in PBS
[5] = molecular target: T1, Aβ1-42 oligomers (Homo sapiens, UniProt P05067); experiment: NMR binding studies (STD-NMR, trNOESY) with beta-amyloid oligomers; settings: Aβ1-42 80 uM, deuterated PBS pH 7.5
T1 construct: lyophilized Aβ1-42 was dissolved in 10 mM NaOD in D2O at a concentration of 160 μM
T1 sequence (P05067 672-713): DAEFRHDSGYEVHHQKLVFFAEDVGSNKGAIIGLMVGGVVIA
Procedure: The selection was made through sample characterization by NMR spectroscopy, as previously described Immediately before use, lyophilized Aβ1-42 was dissolved in 10 mM NaOD in D2O at a concentration of 160 μM, then diluted 1:1 with 10 mM phosphate buffer saline, pH 7.4 containing 100 mM NaCl (PBS) and ethyl acetate extract of G. tenera or one of the tested compounds. […] The pH of each sample was verified with a Microelectrode (Mettler Toledo) for 5 mm NMR tubes and adjusted with NaOD and/or DCl. All pH values were corrected for isotope effect.
NMR experiments were recorded on a Varian 400-MHz Mercury instrument. The basic VARIAN sequences were employed for 2D-TOCSY, 2D-NOESY, ^13C-HSQC, DOSY and STD experiments. For STD, a train of Gaussian-shaped pulses each of 50 ms was employed to saturate selectively the protein envelope; the total saturation time of the protein envelope was adjusted by the number of shaped pulses and was varied between 3 s and 0.3 s. A ^1H spectrum was acquired with a recycle delay of 60 s to achieve the complete relaxation of all the resonances at each scan.

O=C(N[C@H](CO)[C@H](O)c1ccc([N+](=O)[O-])cc1)C(Cl)Cl [Chloramphenicol, chloramphenicol]
IC50 [1]: 143 µg/mL (≈ 443 µM)

OO [Compound H2O2, hydrogen peroxide]
IC50 in vitro acute toxicity [1]: 2 µg/mL (≈ 58.8 µM)

C[S+](C)[O-] [DMSO]
IC50 in vitro acute toxicity [1]: 199 µg/mL (≈ 2550 µM)

O=c1cc(-c2ccc(O)cc2)oc2cc(O)cc(O)c12 [apigenin]
blood glucose levels [2]: significantly lowered blood glucose levels

COc1cc(-c2cc(=O)c3c(O)cc(O)cc3o2)ccc1O [chrysoeriol]
blood glucose levels [2]: significantly lowered blood glucose levels

O=c1c(-c2ccc(O)cc2)coc2cc(O[C@@H]3O[C@H](CO)[C@@H](O)[C@H](O)[C@H]3O)cc(O)c12 [genistein-7-O-glucoside, Genistein 7-O-β-D-glucoside]
diffusion coefficient [3]: 2.65±0.035 10^−10 m^2/s
solubility in PBS [4]: insolubility

O=c1c(-c2ccc(O)cc2)coc2cc(O)cc(O)c12 [genistein]
blood glucose levels [2]: significantly lowered blood glucose levels
binding to Aβ1-42 oligomers (STD-NMR, trNOESY), words [5]: efficient Aβ oligomer ligand
